Reference: PMC7762786, “The discovery of novel antitrypanosomal 4-phenyl-6-(pyridin-3-yl)pyrimidines” (European Journal of Medicinal Chemistry, 2021)

Columns and labels:
[1] = target: T1, CYP1A2 (Homo sapiens, UniProt P05177); test: Cytochrome P450 inhibition assay (P450-Glo); type: in vitro ADME; conditions: 10 μM, result in words
T1 construct: purchased Corning; host or cells: baculovirus infected insect cells (BTI-TN-5B1-4)
T1 sequence (P05177 2-516 limits assumed): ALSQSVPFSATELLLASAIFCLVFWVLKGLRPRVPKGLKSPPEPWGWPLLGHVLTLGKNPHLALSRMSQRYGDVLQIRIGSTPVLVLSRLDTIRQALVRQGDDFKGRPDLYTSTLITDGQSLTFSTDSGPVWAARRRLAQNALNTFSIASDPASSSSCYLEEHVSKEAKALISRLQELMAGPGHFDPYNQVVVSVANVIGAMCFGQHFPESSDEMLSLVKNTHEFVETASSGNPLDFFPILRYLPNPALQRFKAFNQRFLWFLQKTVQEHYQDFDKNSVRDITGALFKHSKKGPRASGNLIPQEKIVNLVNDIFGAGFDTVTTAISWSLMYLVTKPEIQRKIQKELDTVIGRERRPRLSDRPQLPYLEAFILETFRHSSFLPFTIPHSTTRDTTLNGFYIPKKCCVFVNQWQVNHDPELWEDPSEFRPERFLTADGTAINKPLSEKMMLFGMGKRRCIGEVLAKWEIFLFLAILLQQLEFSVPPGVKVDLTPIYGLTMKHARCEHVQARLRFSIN
Description: (§1) Cytotoxicity was also determined against 786-O and A549 cells.
(§2) Experiments for determining pre-clinical in vitro ADME-Tox activities were performed as described by Moraes et al. and also described in the following sections 4.3.2.1 to 4.3.2.4.
(§3) The luminescence based P450-Glo™ (Promega Corp.) assay was used in 384-well assay format.
(§4) The cytochrome P450 (CYP) panel included microsomal preparations of cytochromes P450 1A2, 2C9, 2C19, 2D6, and 3A4 (Corning) from baculovirus infected insect cells (BTI-TN-5B1−4) which express cytochromes P450 and cytochrome c reductase (and cytochrome b5 for 3A4). Compounds were added (100 nL/well in 1% DMSO v/v) using the Echo 550® Liquid Handler followed by addition of 5 μL/well of CYP450/substrate mixture. Following incubation for 30 min at 37 °C, the reaction was initiated by the addition of 5 μL/well of the NADPH regeneration mixture. By the end of a further 30 min incubation (37 °C), the CYP450 reaction was stopped and the luciferase reaction was initiated by the addition of 10 μL/well of the luciferin detection reagent, followed by an additional 30 min of incubation at 37 °C. The luminescence signal was detected using an Infinite® M1000 PRO plate reader. […] The raw data were normalised relative to the positive and negative controls yielding the % inhibition for each compound.

[2] = target: T2, CYP2C19 (Homo sapiens, UniProt P33261); test: Cytochrome P450 inhibition assay (P450-Glo); type: in vitro ADME; conditions: 10 μM, result in words
T2 construct: purchased Corning; host or cells: baculovirus infected insect cells (BTI-TN-5B1-4)
T2 sequence (P33261 whole entry): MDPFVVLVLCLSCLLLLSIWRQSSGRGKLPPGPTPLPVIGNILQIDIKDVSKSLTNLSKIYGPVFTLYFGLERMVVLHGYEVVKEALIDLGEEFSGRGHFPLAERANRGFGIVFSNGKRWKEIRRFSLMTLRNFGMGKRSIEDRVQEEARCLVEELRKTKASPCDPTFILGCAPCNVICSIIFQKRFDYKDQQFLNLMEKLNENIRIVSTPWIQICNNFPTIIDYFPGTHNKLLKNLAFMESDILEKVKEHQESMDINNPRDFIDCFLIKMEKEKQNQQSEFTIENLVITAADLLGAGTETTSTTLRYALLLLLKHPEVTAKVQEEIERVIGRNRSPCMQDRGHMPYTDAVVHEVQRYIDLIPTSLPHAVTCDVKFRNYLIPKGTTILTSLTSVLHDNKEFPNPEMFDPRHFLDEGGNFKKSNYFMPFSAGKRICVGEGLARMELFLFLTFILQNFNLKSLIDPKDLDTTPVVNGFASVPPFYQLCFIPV
Description: as §1, §2, §3, §4

[3] = target: T3, CYP2D6 (Homo sapiens, UniProt P10635); test: Cytochrome P450 inhibition assay (P450-Glo); type: in vitro ADME; conditions: 10 μM, result in words
T3 construct: purchased Corning; host or cells: baculovirus infected insect cells (BTI-TN-5B1-4)
T3 sequence (P10635 whole entry): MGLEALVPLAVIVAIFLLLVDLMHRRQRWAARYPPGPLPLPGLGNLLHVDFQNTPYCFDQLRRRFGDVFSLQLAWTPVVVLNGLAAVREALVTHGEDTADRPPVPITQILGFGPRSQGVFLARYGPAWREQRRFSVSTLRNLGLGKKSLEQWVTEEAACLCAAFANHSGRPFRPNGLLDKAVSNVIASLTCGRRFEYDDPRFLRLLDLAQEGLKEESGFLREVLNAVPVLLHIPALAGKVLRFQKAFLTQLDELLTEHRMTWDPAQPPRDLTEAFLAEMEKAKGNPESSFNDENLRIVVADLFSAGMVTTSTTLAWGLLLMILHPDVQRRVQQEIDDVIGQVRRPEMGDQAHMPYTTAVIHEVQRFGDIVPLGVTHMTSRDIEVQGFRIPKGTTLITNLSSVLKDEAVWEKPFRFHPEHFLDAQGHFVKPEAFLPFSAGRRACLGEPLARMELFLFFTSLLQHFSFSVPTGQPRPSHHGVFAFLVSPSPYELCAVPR
Description: as §1, §2, §3, §4

[4] = target: T4, hERG (Homo sapiens, UniProt Q12809); test: hERG cardiotoxicity assay (Predictor hERG Fluorescence Polarisation); type: binding; conditions: 10 μM, result in words
T4 construct: purchased Invitrogen
T4 sequence (Q12809 whole entry): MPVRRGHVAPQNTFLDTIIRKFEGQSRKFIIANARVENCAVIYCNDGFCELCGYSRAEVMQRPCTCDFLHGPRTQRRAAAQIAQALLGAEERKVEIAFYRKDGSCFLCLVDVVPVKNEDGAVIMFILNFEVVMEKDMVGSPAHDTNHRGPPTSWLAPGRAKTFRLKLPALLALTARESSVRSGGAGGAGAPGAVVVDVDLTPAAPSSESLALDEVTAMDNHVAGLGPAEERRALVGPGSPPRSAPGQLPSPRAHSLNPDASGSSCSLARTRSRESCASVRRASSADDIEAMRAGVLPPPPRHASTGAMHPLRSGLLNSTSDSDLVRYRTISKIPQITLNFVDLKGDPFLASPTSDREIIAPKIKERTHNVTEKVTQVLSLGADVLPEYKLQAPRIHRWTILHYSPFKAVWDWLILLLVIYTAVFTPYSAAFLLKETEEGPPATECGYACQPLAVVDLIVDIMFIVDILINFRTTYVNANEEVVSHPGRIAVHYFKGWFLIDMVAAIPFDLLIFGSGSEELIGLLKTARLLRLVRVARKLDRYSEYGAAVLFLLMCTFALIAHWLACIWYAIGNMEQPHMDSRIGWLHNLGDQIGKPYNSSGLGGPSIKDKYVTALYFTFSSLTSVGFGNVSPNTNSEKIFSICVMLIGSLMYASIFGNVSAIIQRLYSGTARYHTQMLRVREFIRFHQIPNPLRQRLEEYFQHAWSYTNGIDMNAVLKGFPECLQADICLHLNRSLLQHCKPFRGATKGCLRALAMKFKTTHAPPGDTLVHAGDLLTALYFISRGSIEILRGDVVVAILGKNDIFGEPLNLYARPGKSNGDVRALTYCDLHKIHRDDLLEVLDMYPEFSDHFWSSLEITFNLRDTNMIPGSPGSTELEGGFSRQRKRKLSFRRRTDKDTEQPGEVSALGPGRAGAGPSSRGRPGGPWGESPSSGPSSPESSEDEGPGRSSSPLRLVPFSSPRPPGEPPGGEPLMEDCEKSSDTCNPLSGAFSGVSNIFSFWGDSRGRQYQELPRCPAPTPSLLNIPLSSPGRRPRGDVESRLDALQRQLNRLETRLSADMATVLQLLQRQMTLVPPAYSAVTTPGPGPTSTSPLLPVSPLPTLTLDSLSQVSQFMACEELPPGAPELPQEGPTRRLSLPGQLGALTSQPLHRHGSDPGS
Description: as §1, §2
The Invitrogen Predictor™ hERG Fluorescence Polarisation Assay was used in 384-well assay format. […] The plates were incubated for 2 h at 25 °C in a humidity-controlled incubator and the fluorescence polarisation was measured using an EnVision® multilabel 2103 reader. […] The raw data were normalised relative to the positive and negative controls yielding the % cardiotoxicity for each compound.

[5] = target: rhodesain (Trypanosoma brucei rhodesiense, UniProt Q95PM0); test: STD and WaterLOGSY NMR protein-ligand interaction; type: binding; conditions: rhodesain 50 μM, compound 5 mM, 25 °C; corroborated by WaterLOGSY
Chain of rhodesain (Q95PM0 entry or part of it): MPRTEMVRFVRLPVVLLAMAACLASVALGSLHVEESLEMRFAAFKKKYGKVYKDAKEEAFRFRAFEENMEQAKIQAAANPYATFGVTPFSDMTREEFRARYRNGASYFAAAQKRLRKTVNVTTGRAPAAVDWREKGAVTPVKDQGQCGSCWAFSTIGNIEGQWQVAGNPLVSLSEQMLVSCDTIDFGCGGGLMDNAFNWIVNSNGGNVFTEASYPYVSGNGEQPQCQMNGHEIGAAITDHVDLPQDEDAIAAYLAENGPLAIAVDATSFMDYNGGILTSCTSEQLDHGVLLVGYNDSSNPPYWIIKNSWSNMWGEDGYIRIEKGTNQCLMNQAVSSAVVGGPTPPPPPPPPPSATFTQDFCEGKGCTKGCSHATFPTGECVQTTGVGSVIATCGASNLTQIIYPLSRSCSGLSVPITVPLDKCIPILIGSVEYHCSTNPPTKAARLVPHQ
Description: In order to support the outcome observed from docking studies, protein-ligand interactions were probed via Saturation Transfer Difference (STD) and WaterLOGSY experiments. STD is an NMR technique where the protein is selectively saturated and, if the ligand is binding to the protein in the timescale of the experiment, the saturation gets transferred to the ligand via intermolecular NOE and only then it is possible to observe an NMR signal. WaterLOGSY relies on the detection of the intermolecular NOE between water (which is selectively irradiated) and the ligand. The sign of the NOE depends on the rotational correlation time of the molecule, thus large molecules such as proteins, have an opposite NOE sign than small molecules such as the pyrimidines investigated. If the pyrimidines bind to the protein, their rotational correlation time changes and the sign of the signals in the WaterLOGSY experiment will be opposite than in the absence of a binding protein. […] The WaterLOGSY results, which as expected is generally a more sensitive technique, further corroborate our findings. […]
All NMR studies were performed at 25 °C on a JEOL ECZ-R 600 MHz spectrometer equipped with a ROYAL room temperature probe. […] The spectra were processed and analysed using JEOL Delta software. […]

In the case of `COc1ccccc1-c1cc(-c2cccnc2)nc(N)n1` [Compound 13, 4-(2-Methoxyphenyl)-6-(pyridin-3-yl)pyrimidin-2-amine], the CYP1A2 inhibition [1] is reported as “inhibitory activity”, the CYP2C19 inhibition [2] is reported as “some inhibition” and the CYP2D6 inhibition [3] is reported as “favourable results”. The hERG cardiotoxicity [4] was “no notable”, the “binding to rhodesain by STD NMR” value [5] was “confirming binding to rhodesain” and the melting point was 108 to 110 °C.
